This is an account of results in patent publication US9301970B2, “Methods and compositions for treating trauma-hemorrhage using estrogen and derivatives thereof” (The UAB Research Foundation, priority 2006, dated 2016).

Assay [1] deals with Myeloperoxidase (MPO) activity. As to the kind of experiment: SCI: myeloperoxidase activity (neutrophil infiltration). The assay is classed as in vivo, mouse. The note with it: SCI mice, 24 hours; dosing as E50; ICI 182,780 = co-administration with 17β-estradiol. The protocol:
Mice were anaesthetized using chloral hydrate (400 mg/kg body weight) (Genovese 2006). A longitudinal incision was made on the midline of the back, exposing the paravertebral muscles. These muscles were dissected away exposing T5-T8 vertebrae. The spinal cord was exposed via a four-level T6-T7 laminectomy and SCI was produced by extradural compression using an aneurysm clip with a closing force of 24 g. Following surgery, 1 ml of saline was administered subcutaneously in order to replace the blood volume lost during surgery. During the surgery and recovery from anesthesia, the mice were placed on a warm heating pad and covered with a warm towel. The mice were singly housed in a temperature-controlled room at 27° C. and survival was measured over a period of 10 days. Food and water were provided to the mice ad libitum. During this time period, the animals' bladders were manually voided twice a day until the mice were able to regain normal bladder function. In all injured groups, the spinal cord was compressed for 1 min. […] Myeloperoxidase (MPO) activity, an indicator of PMN accumulation, was determined as previously described (Mullane 1985) 24 h after SCI. […] The rate of change in absorbance was measured spectrophotometrically at 650 nm. MPO activity was defined as the quantity of enzyme degrading 1 μmol of peroxide per minute at 37° C. and was expressed in milliunits/g of wet tissue.

The subject of assay [2] is TNF-α, IL-1β, IL-6, MCP-1. Put plainly: SCI: quantitative real time PCR of cytokines and chemokines in spinal cord. The settings on record: SCI mice, 24 h; dosing as E50; ICI 182,780 = co-administration with 17β-estradiol.
Method: A longitudinal incision was made on the midline of the back, exposing the paravertebral muscles. These muscles were dissected away exposing T5-T8 vertebrae. […] Following surgery, 1 ml of saline was administered subcutaneously in order to replace the blood volume lost during surgery. During the surgery and recovery from anesthesia, the mice were placed on a warm heating pad and covered with a warm towel. The mice were singly housed in a temperature-controlled room at 27° C. and survival was measured over a period of 10 days. Food and water were provided to the mice ad libitum. During this time period, the animals' bladders were manually voided twice a day until the mice were able to regain normal bladder function. In all injured groups, the spinal cord was compressed for 1 min. Sham-injured animals were only subjected to laminectomy.
(§2) At different time points (see FIG. 30), the mice (n=10 from each group for each of the 3 time points) were sacrificed in order to evaluate the various parameters as described below.
Total cellular RNA was isolated from the aqueous phase then the levels of IL-α, TNF-α, MCP-1, IL-6 gene products were determined by Real Time PCR. The amount of each PCR product of gene target was normalized to Glyceraldehyde-3-phosphate dehydrogenase (GAPDH). The RNA extracted from spinal cord of individual mice was reverse trascripted into first strand cDNA with Random Hexamers and purified Avian Myeloblastosis Virus Reverse Transcriptase (Takara, Japan) in 20 ml of reaction after a DNAse treatment and stored at −80° C. until use. Primers pair for each cytokine was designed using the software Oligo (Molecular Biology Insights, Cascade, Colo., USA). The PCR reactions were performed using the following cycle conditions: a denaturation step for 15 minutes at 95° C. and 40 cycles of 30 seconds denaturation at 94° C., 30 seconds annealing (TNF-á 61° C., IL-6 54° C., IL-1β 61° C., MCP-1 54° C., GADPH 56° C.), 15 sec at 72° C. and 7 minutes of final extension at 72° C. The PCR products were visualized by electrophoresis on agarose gel 2% stained by ethidium bromide. The purified PCR products were cloned into a plasmid vector, transformed into the E. coli TOP 10 (Invitrogen) and purified with Turbo Kit (QBIOgene, Calif., USA). The recombinant plasmid was linearized upstream the target sequence using the restriction endonuclease PmeI (Fermentas, Canada). Tenfold dilutions of recombinant plasmid from 10^9 copies down to 10^1 copies were used as standards. The real time PCR assay was developed and evaluated on the Rotor-Gene 3000 system (Corbett Research, Australia). […] The signal was acquired on the FAM channel (multichannel machine) (source, 470 nm; detector, 510 nm; gain set to 5) with the fluorescence reading taken at the end of each 72° C. step. […]
The subject of another assay is Bax and Bcl-2. As to the kind of experiment: SCI: Western blot analysis for Bax and Bcl-2. It counts as in vivo, mouse. The note with it: spinal cord, 24 hours after SCI; ICI 182,780 = co-administration with 17β-estradiol. How it is done:
(§1) Mice were anaesthetized using chloral hydrate (400 mg/kg body weight) (Genovese 2006). A longitudinal incision was made on the midline of the back, exposing the paravertebral muscles. These muscles were dissected away exposing T5-T8 vertebrae. The spinal cord was exposed via a four-level T6-T7 laminectomy and SCI was produced by extradural compression using an aneurysm clip with a closing force of 24 g. Following surgery, 1 ml of saline was administered subcutaneously in order to replace the blood volume lost during surgery. During the surgery and recovery from anesthesia, the mice were placed on a warm heating pad and covered with a warm towel. The mice were singly housed in a temperature-controlled room at 27° C. and survival was measured over a period of 10 days. Food and water were provided to the mice ad libitum. […]
For Western blot analysis, 70 μg protein of lysates were mixed with gel loading buffer (50 mM Tris, 10% (w/v), sodium dodecyl sulphate (SDS), 10% (w/v) glycerol, 10% (v/v) 2- mercaptoethanol, 2 mg/ml bromophenol), boiled for 5 min, and subjected to SDSPAGE (12% polyacrylamide). […] The protein bands of Bax (23˜kDa), or Bcl -2 (26˜kDa) on x-ray film were scanned and densitometrically analyzed with a model GS-700 imaging densitometer (Bio-Rad Laboratories). […]

For assay [3], the system named is Nitrotyrosine, iNOS, MPO, COX-2, Bax and Bcl-2. As to the kind of experiment: SCI: immunohistochemical localization of nitrotyrosine, iNOS, MPO, COX-2, Bax and Bcl-2. The settings on record: ICI 182,780 = co-administration with 17β-estradiol.
Method: A longitudinal incision was made on the midline of the back, exposing the paravertebral muscles. These muscles were dissected away exposing T5-T8 vertebrae. […] Following surgery, 1 ml of saline was administered subcutaneously in order to replace the blood volume lost during surgery. During the surgery and recovery from anesthesia, the mice were placed on a warm heating pad and covered with a warm towel. […] Food and water were provided to the mice ad libitum. During this time period, the animals' bladders were manually voided twice a day until the mice were able to regain normal bladder function. In all injured groups, the spinal cord was compressed for 1 min. Sham-injured animals were only subjected to laminectomy.
as §2
At 24 h after SCI, the tissues were fixed in 10% (w/v) PBS-buffered formaldehyde and 8-μm sections were prepared from paraffin embedded tissues. After deparaffinization, endogenous peroxidase was quenched with 0.3% (v/v) hydrogen peroxide in 60% (v/v) methanol for 30 min. The sections were permeabilized with 0.1% (w/v) Triton X-100 in PBS for 20 min. Non-specific adsorption was minimized by incubating the section in 2% (v/v) normal goat serum in PBS for 20 min. Endogenous biotin or avidin binding sites were blocked by sequential incubation for 15 min with biotin and avidin (DBA), respectively. Sections were incubated overnight with antinitrotyrosine rabbit polyclonal antibody (Upstate; 1:500 in PBS, v/v), with anti-iNOS polyclonal antibody rat (1:500 in PBS, v/v), anti-COX-2 monoclonal antibody (1:500 in PBS, v/v), anti-Bax rabbit polyclonal antibody (Santa Cruz Biotechnology, Inc., Santa Cruz, Calif.; 1:500 in PBS, v/v), or with anti-Bcl-2 polyclonal antibody rat (Santa Cruz Biotechnology, Inc., Santa Cruz, Calif.; 1:500 in PBS, v/v), or with anti-MPO polyclonal antibody (Santa Cruz Biotechnology, Inc., Santa Cruz, Calif.; 1:500 in PBS, v/v). Sections were washed with PBS, and incubated with secondary antibody. Specific labeling was detected with a biotin-conjugated goat anti-rabbit IgG and avidin-biotin peroxidase complex (DBA) and counterstained whith nuclear fast red. To verify the binding specificity for nitrotyrosine, iNOS, COX-2, Bax, and Bcl-2, some sections were also incubated with only the primary antibody (no secondary) or with only the secondary antibody (no primary).
A further assay deals with Adult male CD1 mice. Put plainly: Spinal cord injury (SCI): light microscopy, histological score, Luxol fast blue. The assay is classed as in vivo, mouse. How it is done: as §1, with “days.” for “days. Food and water were provided to the mice ad libitum.”
The segments of each spinal cord were evaluated by an experienced histopathologist (RO). Damaged neurons were counted and the histopathologic changes of the gray matter were scored on a 6-point scale (Sirin 2000): 0, no lesion observed, 1, gray matter contained 1 to 5 eosinophilic neurons; 2, gray matter contained 5 to 10 eosinophilic neurons; 3, gray matter contained more than 10 eosinophilic neurons; 4, small infarction (less than one third of the gray matter area); 5, moderate infarction; (one third to one half of the gray matter area); 6, large infarction (more than half of the gray matter area). […]

[4] abbreviates: SCI mice, 24 hours, dosing as E50.
Where [5] appears, read: spinal cord, 24 hours after SCI.

For the compound `C[C@]12CC[C@@H]3c4ccc(O)cc4C[C@@H](CCCCCCCCC[S+]([O-])CCCC(F)(F)C(F)(F)F)[C@H]3[C@@H]1CC[C@@H]2O` (stereo partly drawn) [ICI 182,780], the “MPO activity in the spinal cord (neutrophil infiltration)” value in assay [1] is on record as “significantly blocked the effect of the 17β-estradiol on the neutrophils infiltration”. Moreover, in assay [2], the “tissue levels of IL-1β (mRNA)” value is listed as “significantly blocked the effect of the 17β-estradiol”, the “tissue levels of IL-6 (mRNA)” value is listed as “significantly blocked the effect of the 17β-estradiol”, the “tissue levels of MCP-1 (mRNA)” value is reported as “significantly blocked the effect of the 17β-estradiol” and the “tissue levels of TNF-α (mRNA)” value is recorded as “significantly blocked the effect of the 17β-estradiol”. In the assay on Bax and Bcl-2, the “Bax expression (Western blot)” value is given as “significantly blocked the effect of the 17β-estradiol on Bax expression” and the “Bcl-2 expression (Western blot)” value is recorded as “significantly blocked the effect of the 17β-estradiol on the Bcl2 expression”. Further, in assay [3] (setting [4]), the “immunohistological staining for COX-2” value is “significantly blocked the effect of the 17β-estradiol on COX-2 expression”, the “immunohistological staining for iNOS” value is recorded as “significantly blocked the effect of the 17β-estradiol on iNOS expression”, the “immunohistological staining for nitrotyrosine” value is reported as “significantly blocked the effect of the 17β-estradiol” and the “staining for MPO” value is “significantly blocked the effect of the 17β-estradiol on the MPO”. In assay [3] (setting [5]), the “immunohistological staining for Bax” value was “significantly blocked the effect of the 17β-estradiol” and the “immunohistological staining for Bcl-2” value is “significantly blocked the effect of the 17β-estradiol”. Further, the “histological alteration of spinal cord (H&E, histological score)” value in the assay on Adult male CD1 mice (24 hours after injury, 17β-estradiol 300 μg/kg s.c. 1 h before, 3 h and 6 h after SCI, ICI 182,780 rows: 500 μg/kg s.c. 1 hour before 17β-estradiol (co-administration)) is listed as “significantly blocked the effect of the 17β-estradiol on the histological alteration”. In addition, the “myelin structure (Luxol fast blue staining)” value in the assay on Adult male CD1 mice (24 hours, dosing as E50, ICI 182,780 = co-administration with 17β-estradiol) is “significantly blocked the effect of the 17β-estradiol”.
